Experimental data reported in patent US10718782B2, “Method of evaluating cellulite and method of evaluating cellulite-effective drug using fibulin-3 and/or sarcoglycan gamma as an indicator” (Shiseido Company, Ltd., priority 2012, dated 2020).

How the values were obtained:
cellulite = settings: applied on the affected cellulite site; Patent Literature 1 and 2, Non-patent Literature 8; cited from earlier work
sarcoglycan gamma = experiment: Addition of known cellulite-improving drugs to cultured fibroblasts, sarcoglycan gamma expression by quantitative PCR; assay type: cell-based; settings: fibroblasts derived from human skin tissue, serum-free medium, 24 hours; conjugated linoleic acid 0.001% and 0.01% v/v, nicotinamide 0.0005% and 0.005% v/v; mRNA vs control
Method: (§1) Quantitative RT-PCR was carried out by using synthesized cDNA as the template, and further by using a reaction reagent LightCycler (registered trademark) FastStart DNA MasterPlus SYBR Green (Roche), and a reaction instrument LightCycler (Roche) or AB 7900 HT Fast Real-Time PCR System (Applied Biosystems). The condition for composition was as described in Roche's protocol. The annealing temperature of the primers was set at 60° C., and quantitated by using ΔΔCt method.
(§2) Fibroblasts derived from human skin tissue were plated in a 24-well type I collagen-coated dish (IWAKI), and cultured to 70-80% confluence in a 10% bovine fetal serum-supplemented DMEM (Gibco/Invitrogen) under the condition of 37° C. and 5% CO2. After replacing with a serum-free medium for half a day, it was further replaced with a serum-free medium with varying concentrations of conjugated linoleic acid (Sigma) (0.001% v/v, 0.01% v/v) or nicotinamide (Sigma) (0.0005% v/v, 0.005% v/v). 24 hours later, RNA was recovered by using RNeasy mini kit (Qiagen) according to Qiagen's protocol. As a control, RNA prepared and recovered by substituting the medium with an intact serum-free medium, and recovering RNA 24 hours later was used. The concentration of the recovered RNA was determined using a nucleic acid quantitation instrument Nanodrop (Thermo Scientific). […]

fibulin-3 = experiment: Addition of known cellulite-improving drugs to cultured fibroblasts, fibulin-3 expression by quantitative PCR; assay type: cell-based; settings: fibroblasts derived from human skin tissue, serum-free medium, 24 hours; conjugated linoleic acid 0.001% and 0.01% v/v, nicotinamide 0.0005% and 0.005% v/v; mRNA vs control
Method: as §1, §2

Compound	alleviation of cellulite (cellulite)	expression of sarcoglycan gamma (sarcoglycan gamma)	expression of fibulin-3 (fibulin-3)
NC(=O)c1cccnc1 [nicotinamide]	alleviate cellulite	enhanced the expression of fibulin-3 and sarcoglycan in a dose-dependent manner	enhanced the expression of fibulin-3 and sarcoglycan in a dose-dependent manner
conjugated linoleic acid	alleviate cellulite	enhanced the expression of fibulin-3 and sarcoglycan in a dose-dependent manner	enhanced the expression of fibulin-3 and sarcoglycan in a dose-dependent manner
sulfocarbiose	alleviate cellulite	–	–
